Series [1] deals with T1, NAD-dependent protein deacetylase sirtuin-1 (Homo sapiens, UniProt Q96EB6).
T1 sequence (Q96EB6 whole entry): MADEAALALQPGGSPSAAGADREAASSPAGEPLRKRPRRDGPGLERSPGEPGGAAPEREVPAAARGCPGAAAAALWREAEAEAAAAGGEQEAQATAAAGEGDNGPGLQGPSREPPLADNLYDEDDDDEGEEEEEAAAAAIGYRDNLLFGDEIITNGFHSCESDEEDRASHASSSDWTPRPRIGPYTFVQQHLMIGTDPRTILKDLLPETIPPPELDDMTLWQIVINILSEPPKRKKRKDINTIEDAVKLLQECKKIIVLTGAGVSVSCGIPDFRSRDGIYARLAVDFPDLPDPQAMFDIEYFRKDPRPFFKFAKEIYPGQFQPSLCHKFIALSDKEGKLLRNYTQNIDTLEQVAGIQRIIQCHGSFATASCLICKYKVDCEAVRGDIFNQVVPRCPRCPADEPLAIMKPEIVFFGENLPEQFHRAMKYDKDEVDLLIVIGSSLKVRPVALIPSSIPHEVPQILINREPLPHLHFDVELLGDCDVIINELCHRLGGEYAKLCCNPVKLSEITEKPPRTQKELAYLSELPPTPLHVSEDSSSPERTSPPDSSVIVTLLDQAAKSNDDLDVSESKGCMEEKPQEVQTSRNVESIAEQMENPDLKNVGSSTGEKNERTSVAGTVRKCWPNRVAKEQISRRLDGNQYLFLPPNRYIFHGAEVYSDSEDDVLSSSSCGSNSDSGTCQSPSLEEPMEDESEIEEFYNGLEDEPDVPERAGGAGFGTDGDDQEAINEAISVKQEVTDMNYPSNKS
Description: Inhibition of His-tagged SIRT1 (1 to 747) (unknown origin)-mediated deacetylation of Ac-RHKKAcW-NH2 substrate preincubated for 20 mins measured after 30 mins by mass spectrophotometric analysis.

In series [2] the target is T2, NAD-dependent protein deacetylase sirtuin-2 (Homo sapiens, UniProt Q8IXJ6).
T2 sequence (Q8IXJ6 whole entry): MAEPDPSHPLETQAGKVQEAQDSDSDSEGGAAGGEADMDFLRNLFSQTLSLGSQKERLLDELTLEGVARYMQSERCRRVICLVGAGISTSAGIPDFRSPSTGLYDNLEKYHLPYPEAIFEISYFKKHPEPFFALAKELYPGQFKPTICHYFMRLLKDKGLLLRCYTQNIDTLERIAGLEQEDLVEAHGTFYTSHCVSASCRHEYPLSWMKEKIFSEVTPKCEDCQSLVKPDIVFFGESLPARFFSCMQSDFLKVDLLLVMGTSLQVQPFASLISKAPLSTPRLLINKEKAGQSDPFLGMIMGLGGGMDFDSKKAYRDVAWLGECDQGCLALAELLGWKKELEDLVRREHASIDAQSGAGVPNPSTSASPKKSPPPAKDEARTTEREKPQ
As to the kind of experiment: Inhibition of His-tagged SIRT2 (1 to 389) (unknown origin)-mediated deacetylation of Ac-RHKKAcW-NH2 substrate incubated for 20 mins prior to substrate addition measured after 30 mins by mass spectrophotometric analysis.

In series [3] the target is Cytochrome P450 2D6 (Homo sapiens, UniProt P10635). As to the kind of experiment: Inhibition of CYP2D6 (unknown origin). It counts as ADME.
The target in series [4] is T3, Cytochrome P450 1A2 (Homo sapiens, UniProt P05177).
T3 sequence (P05177 whole entry): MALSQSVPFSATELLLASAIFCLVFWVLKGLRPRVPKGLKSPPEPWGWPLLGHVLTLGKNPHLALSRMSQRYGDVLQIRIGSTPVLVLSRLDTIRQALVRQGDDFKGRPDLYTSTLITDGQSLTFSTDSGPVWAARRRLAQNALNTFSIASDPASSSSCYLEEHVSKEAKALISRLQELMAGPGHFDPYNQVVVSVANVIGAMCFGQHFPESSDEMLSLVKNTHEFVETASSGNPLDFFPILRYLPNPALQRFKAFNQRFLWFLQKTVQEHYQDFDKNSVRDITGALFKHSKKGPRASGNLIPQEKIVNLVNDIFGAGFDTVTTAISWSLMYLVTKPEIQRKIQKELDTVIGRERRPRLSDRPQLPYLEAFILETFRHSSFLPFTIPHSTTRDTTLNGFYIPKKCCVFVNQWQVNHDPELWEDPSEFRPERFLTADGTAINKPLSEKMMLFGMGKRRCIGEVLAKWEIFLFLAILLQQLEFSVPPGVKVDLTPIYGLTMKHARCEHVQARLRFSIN
Description: Inhibition of CYP1A2 (unknown origin). It counts as ADME.

The nature of series [5]: Kinetic solubility in PBS at pH 7.4 by chemiluminescent nitrogen detection assay.
The target in series [6] is Voltage-gated inwardly rectifying potassium channel KCNH2 (Homo sapiens, UniProt Q12809). As to the kind of experiment: Inhibition of human ERG by dofetilide binding assay.
The target of series [7] is Cytochrome P450 3A4 (Homo sapiens, UniProt P08684). As to the kind of experiment: Inhibition of CYP3A4 (unknown origin). The format is ADME.
A short description of series [8]: Intrinsic clearance in mouse liver microsomes measured per mg of protein. The format is ADME, Microsome. The following applies: read-out: CLH.
The target in series [9] is Cytochrome P450 2C19 (Homo sapiens, UniProt P33261). Description: Inhibition of CYP2C19 (unknown origin). It counts as ADME.
Series [10] in a line: Intrinsic clearance in human liver microsomes measured per mg of protein. The format is ADME, Microsome. The conditions noted are these: read-out: CLH.
Series [11] addresses T4, NAD-dependent protein deacetylase sirtuin-3, mitochondrial (Homo sapiens, UniProt Q9NTG7).
T4 sequence (Q9NTG7 whole entry): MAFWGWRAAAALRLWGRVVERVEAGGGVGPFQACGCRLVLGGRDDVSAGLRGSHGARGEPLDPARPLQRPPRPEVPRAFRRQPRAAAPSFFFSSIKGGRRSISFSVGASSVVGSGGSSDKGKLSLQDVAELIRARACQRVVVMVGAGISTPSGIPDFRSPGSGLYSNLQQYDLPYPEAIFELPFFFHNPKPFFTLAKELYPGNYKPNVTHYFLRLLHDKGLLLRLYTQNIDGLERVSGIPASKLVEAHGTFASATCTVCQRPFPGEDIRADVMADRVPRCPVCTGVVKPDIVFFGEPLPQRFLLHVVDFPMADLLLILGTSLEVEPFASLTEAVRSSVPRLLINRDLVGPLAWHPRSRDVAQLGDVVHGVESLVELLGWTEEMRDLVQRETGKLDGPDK
Description: Inhibition of human His-tagged SIRT3 (102 to 399) expressed in Escherichia coli BL21(DE3) assessed as inhibition of deacetylation of Ac-RHKKAcW-NH2 substrate preincubated for 20 mins measured after 30 mins by mass spectrophotometric analysis.

Series [12] deals with T1, NAD-dependent protein deacetylase sirtuin-1. Description: Inhibition of GST-tagged SIRT1 (unknown origin) using KI177 as substrate after 1 hr by spectrophotometric analysis.
Series [13] deals with T4, NAD-dependent protein deacetylase sirtuin-3, mitochondrial. As to the kind of experiment: Inhibition of His-tagged SIRT3 (unknown origin) using KI179 as substrate after 1 hr by spectrophotometric analysis.

Converted amounts (≈) assume the structure as drawn. Bounds are passed on as bounds.

Chain of Voltage-gated inwardly rectifying potassium channel KCNH2 (Q12809 whole entry): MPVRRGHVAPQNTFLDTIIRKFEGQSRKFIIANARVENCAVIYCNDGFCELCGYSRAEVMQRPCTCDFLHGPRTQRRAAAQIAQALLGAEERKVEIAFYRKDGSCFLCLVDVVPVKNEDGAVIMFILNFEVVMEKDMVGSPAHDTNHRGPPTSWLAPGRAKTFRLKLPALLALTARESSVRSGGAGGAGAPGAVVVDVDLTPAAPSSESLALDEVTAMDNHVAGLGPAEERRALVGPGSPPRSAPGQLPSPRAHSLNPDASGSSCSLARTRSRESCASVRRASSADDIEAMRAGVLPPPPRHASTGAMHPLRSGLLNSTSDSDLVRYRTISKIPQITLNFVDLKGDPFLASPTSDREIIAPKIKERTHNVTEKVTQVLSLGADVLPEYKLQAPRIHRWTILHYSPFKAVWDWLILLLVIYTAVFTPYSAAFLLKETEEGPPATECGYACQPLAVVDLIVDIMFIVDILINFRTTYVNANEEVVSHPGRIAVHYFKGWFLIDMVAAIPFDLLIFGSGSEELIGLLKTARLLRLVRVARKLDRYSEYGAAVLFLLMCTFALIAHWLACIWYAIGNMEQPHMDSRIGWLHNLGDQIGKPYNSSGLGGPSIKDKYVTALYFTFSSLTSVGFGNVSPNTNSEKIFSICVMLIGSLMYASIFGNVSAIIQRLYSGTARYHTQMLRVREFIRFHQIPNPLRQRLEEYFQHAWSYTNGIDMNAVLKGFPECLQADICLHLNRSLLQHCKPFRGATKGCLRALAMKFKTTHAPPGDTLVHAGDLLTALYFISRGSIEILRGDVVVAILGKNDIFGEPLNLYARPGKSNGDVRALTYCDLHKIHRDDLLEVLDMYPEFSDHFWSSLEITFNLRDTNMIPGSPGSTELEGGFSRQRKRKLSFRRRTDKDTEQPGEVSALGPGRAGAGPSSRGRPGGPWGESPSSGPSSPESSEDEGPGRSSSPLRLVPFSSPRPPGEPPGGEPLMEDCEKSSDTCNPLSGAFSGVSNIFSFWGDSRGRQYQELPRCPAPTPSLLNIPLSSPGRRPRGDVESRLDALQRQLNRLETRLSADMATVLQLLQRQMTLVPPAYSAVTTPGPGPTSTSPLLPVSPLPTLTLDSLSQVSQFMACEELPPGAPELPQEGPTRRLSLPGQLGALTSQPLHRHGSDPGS
Chain of Cytochrome P450 2C19 (P33261 whole entry): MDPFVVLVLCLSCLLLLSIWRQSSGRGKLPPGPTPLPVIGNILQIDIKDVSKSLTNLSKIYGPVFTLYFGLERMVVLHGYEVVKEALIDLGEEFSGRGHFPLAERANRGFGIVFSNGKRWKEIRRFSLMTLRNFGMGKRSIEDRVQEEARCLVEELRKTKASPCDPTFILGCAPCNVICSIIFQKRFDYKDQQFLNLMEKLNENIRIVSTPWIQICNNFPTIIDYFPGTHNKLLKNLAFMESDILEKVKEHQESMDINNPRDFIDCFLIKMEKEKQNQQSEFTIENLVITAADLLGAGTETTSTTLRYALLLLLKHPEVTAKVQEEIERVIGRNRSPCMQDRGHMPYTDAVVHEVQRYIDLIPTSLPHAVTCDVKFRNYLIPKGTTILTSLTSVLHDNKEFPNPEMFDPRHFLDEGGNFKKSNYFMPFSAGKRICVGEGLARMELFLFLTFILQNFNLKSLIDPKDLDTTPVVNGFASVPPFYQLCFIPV
Chain of Cytochrome P450 3A4 (P08684 whole entry): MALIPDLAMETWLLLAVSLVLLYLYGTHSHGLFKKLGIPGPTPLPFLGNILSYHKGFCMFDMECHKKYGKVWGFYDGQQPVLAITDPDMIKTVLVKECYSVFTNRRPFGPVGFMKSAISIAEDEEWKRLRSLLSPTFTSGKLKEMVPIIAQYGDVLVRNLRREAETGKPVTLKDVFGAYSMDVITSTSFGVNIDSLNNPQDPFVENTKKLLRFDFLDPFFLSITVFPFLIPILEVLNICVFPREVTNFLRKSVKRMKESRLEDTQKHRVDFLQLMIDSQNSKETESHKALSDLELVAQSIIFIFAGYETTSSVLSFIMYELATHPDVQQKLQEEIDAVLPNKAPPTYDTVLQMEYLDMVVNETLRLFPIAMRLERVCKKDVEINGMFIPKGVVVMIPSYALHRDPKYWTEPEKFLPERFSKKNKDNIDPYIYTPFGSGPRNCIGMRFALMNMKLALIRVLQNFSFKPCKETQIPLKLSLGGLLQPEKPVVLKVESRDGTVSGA
Chain of Cytochrome P450 2D6 (P10635 whole entry): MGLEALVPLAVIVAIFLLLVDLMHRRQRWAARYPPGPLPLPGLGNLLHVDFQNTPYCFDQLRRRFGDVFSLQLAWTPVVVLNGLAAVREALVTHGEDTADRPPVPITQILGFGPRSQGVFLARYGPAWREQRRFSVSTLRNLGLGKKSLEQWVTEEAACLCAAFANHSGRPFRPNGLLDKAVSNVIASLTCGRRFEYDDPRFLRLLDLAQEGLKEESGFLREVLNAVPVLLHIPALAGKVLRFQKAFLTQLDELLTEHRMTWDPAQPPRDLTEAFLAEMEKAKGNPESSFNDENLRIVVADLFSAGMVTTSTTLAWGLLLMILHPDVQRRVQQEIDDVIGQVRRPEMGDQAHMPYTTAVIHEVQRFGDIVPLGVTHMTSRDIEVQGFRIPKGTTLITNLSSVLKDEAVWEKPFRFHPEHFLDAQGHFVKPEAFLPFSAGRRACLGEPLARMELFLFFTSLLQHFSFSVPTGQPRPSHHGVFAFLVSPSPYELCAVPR

Consider `CC(C)(C)C(=O)NCCC1CCN(c2ncnc3cc(C(=O)O)sc23)CC1`, for which the half-inhibitory concentration (IC50) in series [1] and in series [2] was > 50000 nM throughout.

Consider `CC(C)(C)C(=O)NCCC1CCN(c2ncnc3cc(C(N)=O)sc23)CC1`, for which the 50% inhibitory concentration (IC50) in [3], in series [4], in series [6], in [7] and in series [9] was > 50000 nM in each case. The kinetic solubility in [5] was determined as 297 µM (≈ 116 µg/mL). The microsomal CLint in [8] was 12.7 µL/min/mg; in series [10] it was 15.8 µL/min/mg.

Consider `CC(C)(C)OC(=O)c1ccc(C(=O)NCCC2CCN(c3ncnc4cc(C(N)=O)sc34)CC2)s1`, for which the IC50 in series [1] came to 6.7 nM; in series [2], 1.8 nM.

`CCNC(=O)c1cccc(C(=O)NCCN2CCN(c3ncnc4cc(C(N)=O)sc34)CC2)c1` returned a solubility (kinetic) in [5] of 220 µM (≈ 106 µg/mL).

Compound `NC(=O)c1cc2ncnc(N3CCC(CCNC(=O)c4ccc(C(=O)O)s4)CC3)c2s1` displayed a concentration for half-maximal inhibition (IC50) in series [2] of 4.4 nM.

In series [5], `CCNC(=O)c1ccc(C(=O)NCCN2CCN(c3ncnc4cc(C(N)=O)sc34)CC2)s1` had a solubility (kinetic) of 65 µM (≈ 31.7 µg/mL). In addition, in [2], half-maximal inhibition (IC50) was put at 4.8 nM.

As to `CCNC(=O)c1cccc(C(=O)NCCC2CCN(c3ncnc4cc(C(N)=O)sc34)CC2)c1`, the kinetic solubility in [5] is 19 µM (≈ 9.13 µg/mL). Further, the half-maximal inhibitory concentration (IC50) stood at 5.3 nM in [1], 1.3 nM in [2] and 4.9 nM in series [11].

`CS(=O)(=O)NCCC1CCN(c2ncnc3cc(C(N)=O)sc23)CC1` registered an IC50 in series [2] of 1.1 nM.

Compound `CCNC(=O)c1ccc(C(=O)NCCC2CCN(c3ncnc4cc(C(N)=O)sc34)CC2)s1` had a solubility (kinetic) in series [5] of 9 µM (≈ 4.38 µg/mL).

For the compound `CCCCC[C@H]1CC(=O)c2cc(Cl)cc(Br)c2O1`, the IC50 in series [12] and in [13] was > 200000 nM each time.

`NC(=O)c1cc2ncnc(N3CCC(CCNC(=O)c4cccs4)CC3)c2s1`: the half-inhibitory concentration (IC50) in series [1] was 5.8 nM; in series [2] it was 6.5 nM.

In series [2], `CC(C)(C)OC(=O)NCCC1CCN(c2ncnc3cc(C(N)=O)sc23)CC1` had an IC50 of 5.4 nM.

For the origin of these results see ChEMBL document CHEMBL2331260, “Discovery of thieno[3,2-d]pyrimidine-6-carboxamides as potent inhibitors of SIRT1, SIRT2, and SIRT3” (J Med Chem, 2013).
